According to patent publication US9718905B2, “Polythiophene, water-soluble electrically conductive polymer using it, and method for producing it” (TOSOH CORPORATION, priority 2012, dated 2017):

Tests used:
[1] = Water solubility of thiophene compound (monomer); format: physicochemical
Description: The thiophene compound used as the material is more preferably one having water solubility to such an extent that it is dissolved in water at room temperature or with heating in an amount of at least 0.5 wt %.
The thiophene compound used as a material is more preferably one having water solubility to such an extent that it is soluble in water at room temperature or with heating in an amount of at least 0.5 wt %.

[2] = Storage and handling in air; format: physicochemical

| water solubility ([1]; at room temperature) | storage and handling in air [2] | water solubility ([1]; temperature not stated) | Structure (SMILES) |
| --- | --- | --- | --- |
| at least 1 wt % | could be stored and handled in air |  | CN(CCS(=O)(=O)[O-])CC1COc2cscc2O1.[Na+] (stereo not drawn) [Example 2, Sodium N-methyl-N-(2,3-dihydro-thieno[3,4-b][1,4]dioxin-2-ylmethyl)-2-aminoethanesulfonate] |
| at least 1 wt % | could be stored and handled in air |  | O=S(=O)([O-])CC1COc2cscc2O1.[Na+] (stereo not drawn) [Example 3, Sodium 2,3-dihydro-thieno[3,4-b][1,4]dioxin-2-ylmethanesulfonate] |
| at least 1 wt % | could be stored and handled in air |  | O=S(=O)([O-])CCCCCCC1COc2cscc2O1.[Na+] (stereo not drawn) [Example 4, sodium 6-(2,3-dihydro-thieno[3,4-b][1,4]dioxin-2-yl)-1-hexanesulfonate] |
|  | could be stored and handled in air | at least 1 wt % | O=S(=O)([O-])c1ccc(OCC2COc3cscc3O2)cc1.[K+] (stereo not drawn) [Example 17, Potassium O-(2,3-dihydro-thieno[3,4-b][1,4]dioxin-2-ylmethyl)-4-phenolsulfonate] |
|  | could be stored and handled in air | at least 1% | O=S(=O)([O-])c1ccc(OCC2COc3cscc3O2)cc1.[Na+] (stereo not drawn) [Example 18, sodium O-(2,3-dihydro-thieno[3,4-b][1,4]dioxin-2-ylmethyl)-4-phenolsulfonate] |

| Structure (SMILES) | water solubility ([1]; at room temperature) | storage and handling in air [2] | water solubility ([1]; temperature not stated) |
| --- | --- | --- | --- |
| O=S(=O)([O-])CCNCC1COc2cscc2O1.[K+] (stereo not drawn) [Example 1, Potassium N-(2,3-dihydro-thieno[3,4-b][1,4]dioxin-2-ylmethyl)-2-aminoethanesulfonate] | at least 1 wt % | could be stored and handled in air |  |
